Source: publication PMC3727052 (Bioorganic & medicinal chemistry, 2012)

Columns and labels:
Vero = Vero cells, microscopically visible alteration of cell morphology
MDCK = MDCK cells, microscopically visible alteration of cell morphology
HEL = HEL cells, microscopically visible alteration of cell morphology
Parainfluenza-3 virus = assay: Virus-induced cytopathicity, parainfluenza-3 virus in Vero cells; assay type: cell-based; details: read-out: EC50 Parainfluenza-3 virus
HeLa = HeLa cells, microscopically visible alteration of cell morphology
Reovirus-1 = assay: Virus-induced cytopathicity, reovirus-1 in Vero cells; assay type: cell-based; details: read-out: EC50 Reovirus-1
VZV (OKA & 07/1) = assay: VZV plaque formation assay in HEL cells; assay type: cell-based, varicella-zoster virus; details: Human alphaherpesvirus 3, HEL, 120 h, read-out: EC50 VZV (OKA & 07/1)
RSV = assay: Virus-induced cytopathicity, RSV in HeLa cells; assay type: cell-based; details: human respiratory syncytial virus, read-out: EC50 RSV
Influenza virus B = assay: Virus-induced cytopathicity, influenza B in MDCK cells; assay type: cell-based; details: unidentified influenza virus, read-out: EC50 Influenza virus B
Influenza virus (AH3N2) = assay: Virus-induced cytopathicity, influenza A H3N2 in MDCK cells; assay type: cell-based; details: unidentified influenza virus, read-out: EC50 Influenza virus (AH3N2)

SMILES | MCC (minimal cytotoxic concentration) Vero (Vero) | MCC (minimal cytotoxic concentration) MDCK (MDCK) | MCC (minimal cytotoxic concentration) HEL (HEL) | EC50 (Parainfluenza-3 virus) | MCC (minimal cytotoxic concentration) HeLa (HeLa) | EC50 (Reovirus-1) | EC50 (VZV (OKA & 07/1)) | EC50 (RSV) | EC50 (Influenza virus B) | EC50 (Influenza virus (AH3N2))
Nc1ncnc2c1sc1ncn([C@H]3C[C@H](O)[C@@H](CO)O3)c12 [Compound 6, 1-[(7-aminoimidazo[4′,5′:4,5]thieno[3,2-d]pyrimidin-3-yl)]-β-D-2′-deoxyribofuranose] | >100 µM | 20 µM | ≥20 µM | > 100 µM | >100 µM |  |  |  |  | 
Nc1nc2c(sc3ncn([C@H]4C[C@H](O)[C@@H](CO)O4)c32)c(=O)[nH]1 [Compound 5, 1-[(5-Aminoimidazo[4′,5′:4,5]thieno[3,2-d]pyrimidin-3-yl-7-one)]-β-D-2′-deoxyribofuranose] | 100 µM | 0.8 µM | >100 µM | > 100 µM | 100 µM | > 100 µM | 71.3 to 100 µM |  |  | 
NC(=O)c1ncn([C@@H]2O[C@H](CO)[C@@H](O)[C@H]2O)n1 [Ribavirin] |  |  |  |  |  | > 250 µM |  | 10 µM | 4.5 to 9 µM | 5.1 to 9 µM
